Assay results from the NIST ThermoML archive (doi:10.1016/j.fluid.2006.01.027).

Settings: Liquid, Pulse-echo method

C=CCCCCCCCCCCCCCC [1-hexadecene]
Settings	speed of sound [m/s]
303.15 K, 100 kPa	1314.4
303.15 K, 2500 kPa	1327.9
303.15 K, 5000 kPa	1341.7
303.15 K, 10000 kPa	1368.2
303.15 K, 15000 kPa	1393.7
303.15 K, 20000 kPa	1418.2
303.15 K, 30000 kPa	1464.6
303.15 K, 40000 kPa	1508
303.15 K, 60000 kPa	1587.7
303.15 K, 80000 kPa	1659.7
303.15 K, 100000 kPa	1725.7
313.15 K, 100 kPa	1278.1
313.15 K, 2500 kPa	1292.1
313.15 K, 5000 kPa	1306.4
313.15 K, 10000 kPa	1333.9
313.15 K, 15000 kPa	1360.2
313.15 K, 20000 kPa	1385.5
313.15 K, 30000 kPa	1433.2
313.15 K, 40000 kPa	1477.8
313.15 K, 60000 kPa	1559.3
313.15 K, 80000 kPa	1632.8
313.15 K, 100000 kPa	1700
323.15 K, 100 kPa	1242.5
323.15 K, 2500 kPa	1257.1
323.15 K, 5000 kPa	1271.9
323.15 K, 10000 kPa	1300.3
323.15 K, 15000 kPa	1327.5
323.15 K, 20000 kPa	1353.6
323.15 K, 30000 kPa	1402.7
323.15 K, 40000 kPa	1448.4
323.15 K, 60000 kPa	1531.8
323.15 K, 80000 kPa	1606.8
323.15 K, 100000 kPa	1675.2
333.15 K, 100 kPa	1207.6
333.15 K, 2500 kPa	1222.7
333.15 K, 5000 kPa	1238
333.15 K, 10000 kPa	1267.5
333.15 K, 15000 kPa	1295.6
333.15 K, 20000 kPa	1322.4
333.15 K, 30000 kPa	1372.9
333.15 K, 40000 kPa	1419.8
333.15 K, 60000 kPa	1505.1
333.15 K, 80000 kPa	1581.5
333.15 K, 100000 kPa	1651.1
343.15 K, 100 kPa	1173.2
343.15 K, 2500 kPa	1188.9
343.15 K, 5000 kPa	1204.9
343.15 K, 10000 kPa	1235.4
343.15 K, 15000 kPa	1264.4
343.15 K, 20000 kPa	1292.1
343.15 K, 30000 kPa	1343.9
343.15 K, 40000 kPa	1392
343.15 K, 60000 kPa	1479.1
343.15 K, 80000 kPa	1556.9
343.15 K, 100000 kPa	1627.7
353.15 K, 100 kPa	1139.5
353.15 K, 2500 kPa	1155.8
353.15 K, 5000 kPa	1172.3
353.15 K, 10000 kPa	1204
353.15 K, 15000 kPa	1233.9
353.15 K, 20000 kPa	1262.4
353.15 K, 30000 kPa	1315.7
353.15 K, 40000 kPa	1364.9
353.15 K, 60000 kPa	1453.9
353.15 K, 80000 kPa	1533.1
353.15 K, 100000 kPa	1605
363.15 K, 100 kPa	1106.4
363.15 K, 2500 kPa	1123.3
363.15 K, 5000 kPa	1140.5
363.15 K, 10000 kPa	1173.2
363.15 K, 15000 kPa	1204.1
363.15 K, 20000 kPa	1233.5
363.15 K, 30000 kPa	1288.2
363.15 K, 40000 kPa	1338.6
363.15 K, 60000 kPa	1429.4
363.15 K, 80000 kPa	1510
363.15 K, 100000 kPa	1583
373.15 K, 100 kPa	1073.8
373.15 K, 2500 kPa	1091.4
373.15 K, 5000 kPa	1109.2
373.15 K, 10000 kPa	1143.1
373.15 K, 15000 kPa	1175
373.15 K, 20000 kPa	1205.2
373.15 K, 30000 kPa	1261.4
373.15 K, 40000 kPa	1313
373.15 K, 60000 kPa	1405.5
373.15 K, 80000 kPa	1487.6
373.15 K, 100000 kPa	1561.6
383.15 K, 100 kPa	1041.7
383.15 K, 2500 kPa	1060.1
383.15 K, 5000 kPa	1078.6
383.15 K, 10000 kPa	1113.6
383.15 K, 15000 kPa	1146.5
383.15 K, 20000 kPa	1177.7
383.15 K, 30000 kPa	1235.3
383.15 K, 40000 kPa	1288.1
383.15 K, 60000 kPa	1382.4
383.15 K, 80000 kPa	1465.8
383.15 K, 100000 kPa	1540.9
393.15 K, 100 kPa	1010.2
393.15 K, 2500 kPa	1029.3
393.15 K, 5000 kPa	1048.5
393.15 K, 10000 kPa	1084.8
393.15 K, 15000 kPa	1118.8
393.15 K, 20000 kPa	1150.8
393.15 K, 30000 kPa	1209.9
393.15 K, 40000 kPa	1263.8
393.15 K, 60000 kPa	1360
393.15 K, 80000 kPa	1444.6
393.15 K, 100000 kPa	1520.8
403.15 K, 100 kPa	979.2
403.15 K, 2500 kPa	999.1
403.15 K, 5000 kPa	1019
403.15 K, 10000 kPa	1056.6
403.15 K, 15000 kPa	1091.6
403.15 K, 20000 kPa	1124.6
403.15 K, 30000 kPa	1185.2
403.15 K, 40000 kPa	1240.3
403.15 K, 60000 kPa	1338.2
403.15 K, 80000 kPa	1424.1
403.15 K, 100000 kPa	1501.3
413.15 K, 100 kPa	948.7
413.15 K, 2500 kPa	969.4
413.15 K, 5000 kPa	990.1
413.15 K, 10000 kPa	1029
413.15 K, 15000 kPa	1065.2
413.15 K, 20000 kPa	1099
413.15 K, 30000 kPa	1161.2
413.15 K, 40000 kPa	1217.4
413.15 K, 60000 kPa	1317
413.15 K, 80000 kPa	1404.2
413.15 K, 100000 kPa	1482.4
423.15 K, 100 kPa	918.8
423.15 K, 2500 kPa	940.3
423.15 K, 5000 kPa	961.8
423.15 K, 10000 kPa	1002
423.15 K, 15000 kPa	1039.3
423.15 K, 20000 kPa	1074.1
423.15 K, 30000 kPa	1137.8
423.15 K, 40000 kPa	1195.2
423.15 K, 60000 kPa	1296.5
423.15 K, 80000 kPa	1384.9
423.15 K, 100000 kPa	1464
433.15 K, 100 kPa	889.2
433.15 K, 2500 kPa	911.7
433.15 K, 5000 kPa	934
433.15 K, 10000 kPa	975.7
433.15 K, 15000 kPa	1014.1
433.15 K, 20000 kPa	1049.8
433.15 K, 30000 kPa	1115
433.15 K, 40000 kPa	1173.6
433.15 K, 60000 kPa	1276.6
433.15 K, 80000 kPa	1366.2
433.15 K, 100000 kPa	1446.2
